Data set [1] concerns mice. Nature of the data set: Sedative effects in mice (exploratory activity, digicom analyzer chamber). Type of data set: in vivo, mouse. Particulars: intraperitoneal, wild type mice; clonidine 500 ug/kg, Compound 3 100 ug/kg. As for the experimental part:
(§1) Sedative effects were analyzed by assessing exploratory behavior in a darkened chamber as follows. Mice were weighed, and test compound administered by intrathecal injection in a volume of 5 μl or by intraperitoneal injection in 1 ml/kg volume at the indicated dose. At predetermined time points corresponding with analgesia measurements 5 to 30 minutes following the injection, the animal's activity was determined automatically by placing the mouse in a digicom analyzer chamber (Omnitech Electronic; Columbus, Ohio). The digicom analyzer chamber contains photocell beams criss-crossing the box that are broken as the animal moves around; the chamber was modified for mice by raising the level of the floor. Computer analysis of total animal movement proceeded over a 5-minute time period. Any given animal was used at most twice for this protocol, as learned behavior can affect the data. All animals received at least two weeks rest between studies.

In data set [2] the test system is sulprostone-sensitized wild type mice. The data set is described as follows: Sulprostone sensitized pain (allodynia), wild type mice. Type of data set: in vivo, mouse. The following applies: intraperitoneal, wild type mice; clonidine 500 ug/kg, Compound 3 100 ug/kg. As for the experimental part:
Non-specific α-adrenergic agonists were assayed in α-2A receptor deficient (“knockout”) mice (Hein et al., supra, 1999) using a mouse model of sulprostone sensitized pain in which allodynia is evoked by intrathecal administration of a selective prostaglandin E2 receptor agonist to conscious mice essentially as described in Minami et al., Pain 57:217-223 (1994). In this model, the pain response to stroking the flank with a paint brush is scored eight times over a 35 minute period starting 15 minutes following spinal administration of sulprostone and intrathecal or intraperitoneal administration of drug or control vehicle. Sulprostone elicits a “pain” score of 12-13 on a 16-point scale.
Assays for allodynia in wild type and α-2A knockout mice were performed essentially according to the method of Yaksh and Harty, J. Pharmacology Exp. Ther. 244: 501-507 (1998). In brief, mice were divided into groups of 5-6 animals. Control mice were administered 5 ul DMSO while treated animals were injected with 5 ul DMSO containing various doses of the indicated agent. After intrathecal injection, each mouse was placed in an individual 13×8.5×13 cm Plexiglass enclosure with wood chips on the floor for observation. Allodynia was assessed once every five minutes over a 50 minute time period, with response recorded eight times in the 15 to 50 minute time frame. Allodynia was assessed by light stroking of the flank of the mice with a small paintbrush and ranked as follows: 0, no response; 1, mild squeaking with attempts to move away from the stroking probe; and 2, vigorous squeaking evoked by the stroking probe, biting at the probe and strong efforts to escape. The eight scores for each animal were added together, and the mean for the group determined to give an average total score.

The subject of data set [3] is Male Sprague-Dawley rats. The data set is described as follows: Sedative effects in rats (total activity, digicom analyzer chamber). Particulars: single intraperitoneal dose 1 to 1000 μg/kg. Type of data set: in vivo, rat. As for the experimental part: as §1
Male Sprague-Dawley rats that were not subject to surgery were used for assessment of sedative effects. Rats were weighed and compound administered by intravenous or intraperitoneal injection or given orally at the indicated dose. At a predetermined time point 5 to 30 minutes following injection, the animal's activity was determined automatically by placing the rat in a digicom analyzer chamber (Omnitech Electronic). Total activity was analyzed as described above.

Data set [4] deals with α-2B heterozygous (−/+) and homozygous (−/−) knockout mice. The data set is described as follows: Sulprostone sensitized pain (allodynia), α-2B knockout mice. Type of data set: in vivo, mouse. Particulars: intraperitoneal; heterozygous and homozygous α-2B knockout; clonidine 500 ug/kg, Compound 3 100 ug/kg.

`O=C1c2ccccc2CCC1Cc1c[nH]c(=S)[nH]1` (racemic) [Compound 3]: the concomitant sedation result in data set [1] is “without concomitant sedation”. Also, the sulprostone-induced tactile allodynia result in data set [2] was “alleviated sulprostone-induced tactile allodynia”. In addition, in data set [3], the “non-sedating dose relative to doses producing a robust reversal of allodynia” value is over 100 fold. Moreover, in data set [4], the “analgesic effect in α-2B knockout mice” value was “not analgesic”.

Values taken from US7345065B2, “Methods and compositions for alleviating pain” (Allergan, Inc., priority 2002, dated 2008).
